Results: article PMC3522743, “Wax Ester Synthesis is Required for Mycobacterium tuberculosis to Enter In Vitro Dormancy” (PLoS ONE, 2012)

Legend:
[1] = biological target: FCR2 (Rv1543) (Mycobacterium tuberculosis, UniProt P9WGS1)
[2] = biological target: T1, FCR1 (Rv3391) (Mycobacterium tuberculosis, UniProt O50417)
T1 construct: gene acrA1
T1 sequence (O50417 entry or part of it): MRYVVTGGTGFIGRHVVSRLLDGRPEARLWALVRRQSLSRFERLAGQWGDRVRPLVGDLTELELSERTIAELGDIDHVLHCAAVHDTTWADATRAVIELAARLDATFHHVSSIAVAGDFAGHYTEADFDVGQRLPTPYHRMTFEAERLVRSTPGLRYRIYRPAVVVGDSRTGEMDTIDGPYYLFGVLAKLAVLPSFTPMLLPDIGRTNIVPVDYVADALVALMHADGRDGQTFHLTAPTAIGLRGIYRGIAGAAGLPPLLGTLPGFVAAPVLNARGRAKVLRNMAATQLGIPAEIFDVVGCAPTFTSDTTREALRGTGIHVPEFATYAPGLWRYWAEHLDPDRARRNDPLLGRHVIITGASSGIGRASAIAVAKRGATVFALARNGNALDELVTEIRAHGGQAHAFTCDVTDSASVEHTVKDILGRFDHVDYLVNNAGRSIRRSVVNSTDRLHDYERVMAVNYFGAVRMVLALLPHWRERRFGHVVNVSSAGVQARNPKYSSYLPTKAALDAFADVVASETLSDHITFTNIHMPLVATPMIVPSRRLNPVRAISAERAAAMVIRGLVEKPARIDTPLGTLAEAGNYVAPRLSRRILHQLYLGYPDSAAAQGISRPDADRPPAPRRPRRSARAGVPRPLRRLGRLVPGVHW

Sequence of FCR2 (Rv1543) (P9WGS1 whole entry): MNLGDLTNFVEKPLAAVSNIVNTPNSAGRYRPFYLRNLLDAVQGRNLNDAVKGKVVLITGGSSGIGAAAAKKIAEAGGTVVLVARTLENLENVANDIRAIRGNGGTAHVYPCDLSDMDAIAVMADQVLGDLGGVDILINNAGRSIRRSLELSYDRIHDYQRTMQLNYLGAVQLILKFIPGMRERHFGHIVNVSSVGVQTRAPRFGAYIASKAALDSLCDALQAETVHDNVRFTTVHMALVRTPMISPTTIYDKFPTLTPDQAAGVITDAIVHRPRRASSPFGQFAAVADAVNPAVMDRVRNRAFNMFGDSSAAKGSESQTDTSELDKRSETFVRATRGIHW

SMILES | 14C product formation, TLC and scintillation counting, E. coli lysate [1] | 14C product formation, TLC and scintillation counting, E. coli lysate [2]
NC(=O)C1=CN([C@@H]2O[C@H](COP(=O)(O)OP(=O)(O)OC[C@H]3O[C@@H](n4cnc5c(N)ncnc54)[C@H](OP(=O)(O)O)[C@@H]3O)[C@@H](O)[C@H]2O)C=CC1 [NADPH] | Both FCR1 and FCR2 exhibited strong preference for NADPH as a cofactor | Both FCR1 and FCR2 exhibited strong preference for NADPH as a cofactor
CCCCCCCC/C=C\CCCCCCCC(=O)SCCNC(=O)CCNC(=O)[C@H](O)C(C)(C)COP(=O)(O)OP(=O)(O)OC[C@H]1O[C@@H](n2cnc3c(N)ncnc32)[C@H](O)[C@@H]1OP(=O)(O)O [oleoyl-CoA] | Both of these proteins showed typical substrate saturation with oleoyl-CoA (Fig. 3C, G). | Both of these proteins showed typical substrate saturation with oleoyl-CoA (Fig. 3C, G).
